From patent US20230348371A1, “SULFONYLUREA DERIVATIVE AND MEDICAL USES THEREOF” (SHANGHAI SENHUI MEDICINE CO., LTD., priority 2020, published 2023) come the findings set out here.

Series [1] can be described thus: In vivo pharmacokinetics after single intravenous injection in SD rats (plasma). The settings on record: rat, single IV 5 mg/kg; for Vd: iv, 5 mg/kg; for MRT last: read-out: MRT(0-t); for MRT inf: read-out: MRT(0-∞). The procedure:
1. […] The mixture was stirred or sonicated until completely dissolved to obtain a clear solution at a concentration of 1 mg/mL for administration by intravenous injection.
2. An appropriate amount of compound 3 or compound 6 was accurately weighed, and an appropriate volume of 5% DMSO+20% PG+20% PEG400+55% PBS (pH 8.0) was added thereto. The mixture was stirred or sonicated until completely dissolved to obtain a clear solution at a concentration of 1 mg/mL for administration by intravenous administration.
SPF grade SD rats, source: animals were transferred from the laboratory animal reserve bank (999M-017), Shanghai Sippe-Bk Lab Animal Co., Ltd.
3 rats/time point was set, blood samples were collected from the first 3 rats in each group, and cerebrospinal fluid and brain tissue were collected from the last 3 rats in each group. Blood sample: before administration and 5 min, 0.25 h, 0.5 h, 1 h, 1.5 h, 2 h, 4 h, 6 h, 8 h, 12 h and 24 h after administration. Tissue sample: cerebrospinal fluid and brain tissue were collected 10 min after administration.
Blood sample: blood was collected via jugular vein or other suitable means, and about 0.20 mL of blood was collected from each rat and added into an EDTA-K2 anticoagulation tube, which was then placed on ice after collection and centrifuged within 2 h for plasma separation (centrifugation conditions: 6800 g, 6 min, 2-8° C.). The collected plasma samples were stored in a refrigerator at −70° C. before analysis, and the residual plasma samples after analysis were still stored in the refrigerator at −70° C. for subsequent processing according to the requirements of the sponsor.
The concentration of each test compound in the plasma and tissue samples was determined. The accuracy of quality control samples was evaluated while analyzing the samples, and more than 66% of the quality control samples were required to have an accuracy between 80% and 120%.
The pharmacokinetic parameters such as AUC(0-t), T½, Cmax, Tmax and MRT were calculated from plasma concentration data at different time points using WinNonlin.
When plasma drug concentration-time curves were plotted, BLQ was recorded as 0. When the pharmacokinetic parameters were calculated, the concentration before administration was calculated as 0; BLQ before Cmax (including “No peak”) was calculated as 0; and BLQ that occurs after Cmax (including “No peak”) was excluded from the calculation.

A further series deals with SUR1 receptor (Homo sapiens (Human), UniProt Q09428). The series can be described thus: Binding activity for SUR1 receptor ([3H]-Glibenclamide displacement, SUR1 membrane). The settings on record: SUR1 membrane protein, [3H]-Glibenclamide 2 nM, 37° C. 1 h. The procedure: The plate was incubated at 4° C. for 1 h. • f) The […]-96 GF/C and […]-96 GF/B plates were washed twice with Universal Harvester, each time with 50 mL of washing solution. • g) The SUR1 receptor reaction system was transferred to a […]-96 GF/B plate with Universal Harvester, and 900 μL of washing solution was added to each well to wash the GF/B plate 4 times. The washed […]-96 GF/B plate was dried in an oven at 55° C. for 10 min. • h) 40 μL of ULTIMA GOLD scintillation solution was added to each well, and the plate was read using Microbeta.
Sequence of SUR1 receptor (Q09428 whole entry): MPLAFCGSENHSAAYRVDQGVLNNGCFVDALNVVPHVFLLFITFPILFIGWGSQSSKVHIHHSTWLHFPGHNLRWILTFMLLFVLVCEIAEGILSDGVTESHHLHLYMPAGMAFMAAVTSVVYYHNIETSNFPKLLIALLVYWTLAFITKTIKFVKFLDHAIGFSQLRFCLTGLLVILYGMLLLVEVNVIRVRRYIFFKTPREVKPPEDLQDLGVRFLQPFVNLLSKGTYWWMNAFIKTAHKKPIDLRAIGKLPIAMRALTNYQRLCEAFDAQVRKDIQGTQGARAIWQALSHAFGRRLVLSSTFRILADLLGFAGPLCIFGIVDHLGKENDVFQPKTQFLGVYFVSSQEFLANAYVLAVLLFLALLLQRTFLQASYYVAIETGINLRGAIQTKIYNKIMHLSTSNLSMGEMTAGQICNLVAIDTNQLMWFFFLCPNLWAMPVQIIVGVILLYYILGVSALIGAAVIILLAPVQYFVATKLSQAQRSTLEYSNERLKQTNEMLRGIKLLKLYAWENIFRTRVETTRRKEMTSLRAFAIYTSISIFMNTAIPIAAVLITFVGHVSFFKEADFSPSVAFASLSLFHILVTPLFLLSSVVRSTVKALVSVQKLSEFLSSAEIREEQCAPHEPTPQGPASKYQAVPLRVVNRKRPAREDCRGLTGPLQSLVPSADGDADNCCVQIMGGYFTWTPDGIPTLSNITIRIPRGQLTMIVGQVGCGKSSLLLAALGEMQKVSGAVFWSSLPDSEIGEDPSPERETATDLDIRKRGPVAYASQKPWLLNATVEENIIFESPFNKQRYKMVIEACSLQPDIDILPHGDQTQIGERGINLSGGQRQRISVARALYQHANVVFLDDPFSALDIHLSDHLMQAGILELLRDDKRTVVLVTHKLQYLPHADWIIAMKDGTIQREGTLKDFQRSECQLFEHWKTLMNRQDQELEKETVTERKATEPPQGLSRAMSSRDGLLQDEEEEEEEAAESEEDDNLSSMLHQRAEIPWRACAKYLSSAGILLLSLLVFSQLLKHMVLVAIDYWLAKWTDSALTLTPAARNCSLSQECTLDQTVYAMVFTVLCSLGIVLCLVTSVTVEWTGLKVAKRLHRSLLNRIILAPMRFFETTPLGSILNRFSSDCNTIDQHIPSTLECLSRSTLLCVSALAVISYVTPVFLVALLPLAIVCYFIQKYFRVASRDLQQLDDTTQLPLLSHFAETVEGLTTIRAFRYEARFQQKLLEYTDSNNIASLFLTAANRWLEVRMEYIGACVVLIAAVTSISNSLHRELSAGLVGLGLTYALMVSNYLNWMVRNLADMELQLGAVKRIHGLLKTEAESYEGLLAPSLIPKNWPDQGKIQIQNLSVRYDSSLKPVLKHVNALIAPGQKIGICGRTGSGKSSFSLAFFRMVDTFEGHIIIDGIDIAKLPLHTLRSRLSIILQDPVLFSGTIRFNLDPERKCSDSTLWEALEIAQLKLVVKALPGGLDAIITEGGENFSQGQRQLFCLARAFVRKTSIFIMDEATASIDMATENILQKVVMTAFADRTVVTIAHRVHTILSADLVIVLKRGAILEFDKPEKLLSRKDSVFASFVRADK

The mark [2] stands for this setting: Sprague-Dawley (SD), read-out: Vss.
Setting [3] is: Sprague-Dawley (SD), read-out: Vz.

Like-named read-outs stand apart in the source and are kept apart here.

Take `O=C(NC1CCCCC1)NS(=O)(=O)c1ccc(CCNC(=O)c2cc(Cl)ccc2O)cc1` [Compound 1, 5-chloro-N-(4-(N-(cyclohexylcarbamoyl)sulfamoyl)phenethyl)-2-hydroxybenzamide]: the Vd in series [1] (setting [2]) was determined as 0.219 ± 0.0263 L/kg. For the same molecule, the Vd in series [1] (setting [3]) is 1 ± 0.202 L/kg. Moreover, in series [1] (Sprague-Dawley (SD)), the AUC(0-inf) was 28700 ± 4700 ng·h/mL, the exposure AUC(0-t) is 28200 ng·h/mL, the maximum concentration (Cmax) turned out to be 65000 ± 3630 ng/mL and the Tmax amounted to 6 min. Also, in series [1] (Sprague-Dawley (SD)), the half-life was 3.9 ± 0.6 h, the MRT last was 0.9 ± 0.3 h and the MRT inf is 1.2 ± 0.1 h.
As to `O=C(NC1CCCCC1)NS(=O)(=O)c1ccc(CCNC(=O)c2cc(Cl)ccc2OC(F)(F)F)cc1` [Compound 3, 5-chloro-N-(4-(N-(cyclohexylcarbamoyl)sulfamoyl)phenethyl)-2-(trifluoromethoxy)benzamide], the IC50 on SUR1 receptor came to 159 nM. Besides, the Vd in series [1] (setting [2]) came out at 0.303 ± 0.0141 L/kg. Moreover, the Vd in series [1] (setting [3]) is 0.51 ± 0.0307 L/kg. In series [1] (Sprague-Dawley (SD)), the AUC(0-inf) is 36400 ± 1170 ng·h/mL, the exposure AUC(0-t) is 35700 ± 1130 ng·h/mL, the Cmax came to 32800 ± 1530 ng/mL and the Tmax is 6 min. In series [1] (Sprague-Dawley (SD)), the half-life is 2.6 ± 0.1 h, the MRT last is 1.9 ± 0.1 h and the MRT inf was 2.2 ± 0.1 h.
`COc1ccc(Cl)cc1C(=O)NCCc1ccc(S(=O)(=O)NC(=O)N[C@H]2CC[C@H](O)CC2)cc1` [Compound 4, 5-chloro-N-(4-(N-(((1r,4r)-4-hydroxycyclohexyl)carbamoyl)sulfamoyl)phenethyl)-2-methoxybenzamide]: in series [1] (SD, read-out: Vss), the Vd amounted to 0.119 ± 0.0123 L/kg. Also, the Vd in series [1] (SD, read-out: Vz) is 1.66 ± 1.73 L/kg. For the same molecule, in series [1], the total exposure AUC(0-inf) came to 13000 ± 1480 ng·h/mL, the AUC(0-t) was 12900 ± 1460 ng·h/mL, the peak concentration (Cmax) was 39600 ± 4730 ng/mL and the Tmax was 6 min. In series [1], the half-life was 3.1 ± 3.4 h, the MRT last was 0.3 ± 0.1 h and the MRT inf was determined as 0.3 ± 0.1 h.
For the molecule `COc1ccc(Cl)cc1C(=O)NCCc1ccc(S(=O)(=O)NC(=O)N[C@@H]2CCCC[C@H]2C#N)cc1` [Compound 6, 5-chloro-N-(4-(N-(((1R,2R)-2-cyanocyclohexyl)carbamoyl)sulfamoyl)phenethyl)-2-methoxybenzamide], the IC50 on SUR1 receptor was found to be 37 nM. In series [1] (setting [2]), the Vd was 3.44 ± 4.53 L/kg. Also, the Vd in series [1] (setting [3]) was 14.6 ± 19.1 L/kg. In addition, in series [1] (Sprague-Dawley (SD)), the AUC(0-inf) was 4980 ± 288 ng·h/mL, the exposure AUC(0-t) turned out to be 4660 ± 259 ng·h/mL, the Cmax is 11800 ± 1060 ng/mL and the time to peak (Tmax) was 6 min. Further, in series [1] (Sprague-Dawley (SD)), the half-life was 5.4 ± 2.1 h, the MRT last was 0.7 ± 0.1 h and the MRT inf came to 3.6 ± 4.8 h.
Take `COc1ccc(C#N)cc1C(=O)NCCc1ccc(S(=O)(=O)NC(=O)NC2CCCCC2)cc1` [Compound 7, 5-cyano-N-(4-(N-(cyclohexylcarbamoyl)sulfamoyl)phenethyl)-2-methoxybenzamide]: the concentration for half-maximal inhibition (IC50) on SUR1 receptor is 6 nM. For the same molecule, the Vd in series [1] (setting [2]) was 0.193 ± 0.0469 L/kg. For the same molecule, the Vd in series [1] (setting [3]) was 0.5 ± 0.16 L/kg. In addition, in series [1] (Sprague-Dawley (SD)), the AUC(0-inf) was 28600 ± 7920 ng·h/mL, the area under the curve AUC(0-t) is 28500 ± 7930 ng·h/mL, the peak concentration (Cmax) turned out to be 42400 ± 8440 ng/mL and the time to peak (Tmax) came to 6 min. In series [1] (Sprague-Dawley (SD)), the half-life was 1.9 ± 0.2 h, the MRT last came to 1 h and the MRT inf turned out to be 1.1 h.
Molecule `Cc1cnc(C(=O)NCCc2ccc(S(=O)(=O)NC(=O)NC3CCCCC3)cc2)cn1` [Glipizide, reference compound] returned an IC50 on SUR1 receptor of 230 nM.
